Measurements as given in patent US20100048634A1, “METHOD FOR TREATING APATHY SYNDROME” (priority 2005, published 2010).

Assays:
Assay type in all cases: in vivo, human
post-stroke patients [1] = test: Controlled clinical trial against placebo, symbol digit modality test (SDMT), cognitive function; settings: for change in cognitive function (SDMT): at 4 weeks, placebo 3.2; for average improvement in cognitive function (SDMT): last visit, placebo 4.2; for improvement in the SDMT scale: patients with cortical strokes, week 12, placebo 2.7
Source text: Cognitive function can be measured using a tool called the symbol digit modality test (SDMT). In this test, patients have a legend which links each digit to a specific graphical, non-text symbol. The patients have a pre-specified, fixed period of time to match, in writing, as many digits to a list of symbols as possible. The number of correctly matched digits to symbols provides a measure of a range of cognitive functions, including executive function, attention, memory, and motor function (Joy, et.al. Arch Clin Neuropsychol. 19:759-67, 2004; Joy, et.al. Clin Neuropsychol. 17:182-94; 2003)
(§1) In this trial, nefiracetam was administered orally to 103 post-stroke patients, who all have some degree of depression, for up to twelve weeks after the vascular event. Concurrently, 56 patients received placebo (placebo group). Of the 103 post-stroke patients treated with nefiracetam, 55 received 600 mg daily (600 mg group), and 48 received 900 mg daily (900 mg group). The three groups of patients were followed for up to 12 weeks, and evaluated at the end of week 4, the end of week 8, and the end of week 12, by measuring the Apathy Evaluation Scale (a symptom scale for measuring apathy), and by measuring SDMT (for measuring cognitive function).

post-stroke patients [2] = test: Controlled clinical trial against placebo, Apathy Evaluation Scale
Protocol: Apathy Evaluation Scale (AES) is used as a measure of apathy severity. Items and factor structure of AES are listed in Marin, et al. (Psychiatry Res. 1991; 38(2):143-62). The assessment, the impairment, as well as and the need of recovery of apathy and cognitive function after stroke are illustrated by Robert G. Robinson “The Clinical Neuropsychiatry of Stroke”, 1998, Cambridge University Press, pages 143, 222-225 and 292-293.
as §1

[3] = test system: post-stroke patients having moderate to severe depression; test: Hamilton Rating Scale of Depression (HAM-D) in post-stroke patients having moderate to severe depression; settings: 600 or 900 mg/day oral; 12 weeks; consistent across various severity of baseline apathy
Source text: (§2) In 151 post-stroke patients having moderate to severe depression, the intervention-free data of Apathy Scale (AS), as a valid measure of apathy, and of Hamilton Rating Scale of Depression (HAM-D) and Beck Depression Inventory (BDI), as valid measures of depression, were collected and analyzed using the method of confirmatory factor analysis. HAM-D and BDI are fully validated and are widely used measures of the severity of depression. HAM-D (Hamilton, J Neurol. Neurosurg. Psychiatry. 23:56-62, 1960) is rated by a professional. BDI (Arch Gen Psychiatry. 4:561-571, 1961) is rated by a patient.
(§3) The 151 patients, who were evaluated at least once after treatment, included the 103 patients studied in Example 1. The 151 patients were divided in three groups each orally receiving placebo (51 patients) or nefiracetam at 600 mg/day (54 patients) or nefiracetam at 900 mg/day (46 patients).
(§4) The data at the end of 12 weeks were analyzed and summarized as follows: […]

[4] = test system: post-stroke patients having moderate to severe depression; test: Apathy Scale (AS) in post-stroke patients having moderate to severe depression; settings: 600 or 900 mg/day oral, 12 weeks, especially high dose
Source text: Apathy Scale (AS) is an abbreviated version of the AES. Items and scoring of Papthy Scale can be found, for example, at Starkstein, et al., J Neuropsychiatry Clin. Neurosciences, 4: 134-139 (1992).
as §2, §3, §4

[5] = 600 and 900 mg daily oral, up to 12 weeks

## Cc1cccc(C)c1NC(=O)CN1CCCC1=O [nefiracetam]
post-stroke patients [1]; 600 mg daily oral
  change in cognitive function (SDMT): 4.1 point
  average improvement in cognitive function (SDMT): 5.7 points
  improvement in the SDMT scale: 7 points
post-stroke patients [1]; 900 mg daily oral
  change in cognitive function (SDMT): 4.4 point
  average improvement in cognitive function (SDMT): 6.6 points
  improvement in the SDMT scale: 14.2 points
post-stroke patients [1]; [5]
  improvements in cognitive function as measured by the SDMT (in words): dose-dependent and time-dependent improvements in cognitive function
post-stroke patients [2]; 600 mg daily oral, at 4 weeks, placebo 1.4
  improvement in apathy (Apathy Evaluation Scale): 1.9 point
post-stroke patients [2]; 600 mg daily oral, cortical stroke patients, last visit carried forward, placebo 1.0
  average improvement in apathy (Apathy Evaluation Scale): 3.4
post-stroke patients [2]; 600 mg daily oral, cortical strokes and significant baseline apathy (greater than 18), last visit, placebo 5.4
  improvement in apathy (Apathy Evaluation Scale): 9.4 points
post-stroke patients [2]; 600 mg daily oral, last visit (12 weeks), placebo 1.4
  average improvement in apathy (Apathy Evaluation Scale): 2.1 points
post-stroke patients [2]; 600 mg daily oral, patients treated within 28 days of the stroke, placebo 0.6
  average improvement in apathy (Apathy Evaluation Scale): 1.3 points
post-stroke patients [2]; 900 mg daily oral, at 4 weeks, placebo 1.4
  improvement in apathy (Apathy Evaluation Scale): 1.9 point
post-stroke patients [2]; 900 mg daily oral, cortical stroke patients, last visit carried forward, placebo 1.0
  average improvement in apathy (Apathy Evaluation Scale): 5.2 points
post-stroke patients [2]; 900 mg daily oral, cortical strokes and significant baseline apathy (greater than 18), last visit, placebo 5.4
  improvement in apathy (Apathy Evaluation Scale): 11.7 points
post-stroke patients [2]; 900 mg daily oral, last visit (12 weeks), placebo 1.4
  average improvement in apathy (Apathy Evaluation Scale): 3.4 points
post-stroke patients [2]; 900 mg daily oral, patients treated within 28 days of the stroke, placebo 0.6
  average improvement in apathy (Apathy Evaluation Scale): 6.1 points
post-stroke patients [2]; [5]
  change in apathy syndrome in comparison to the placebo group (in words): dose-dependent and time-dependent change in apathy syndrome
[3]
  reduction in depression measured by HAM-D versus placebo (in words): patients on placebo showed slightly more reduction in depression than did patients on active treatment
[4]; consistent across moderate to severe and severe depression
  reduction in apathy measured by the Apathy Scale versus placebo (in words): more reduction in apathy than did patients on placebo
[4]; consistent across various severity of baseline apathy
  reduction in apathy measured by the Apathy Scale versus placebo (in words): more reduction in apathy than did patients on placebo
